Literature values as cited in patent US20250009647A1, “PHARMACEUTICAL COMPOSITION” (priority 2021, published 2025).

How the values were obtained:
[1] = in DMSO
[2] = in water

O=C(O)C(=O)O [Oxalic acid]
pKa(DMSO) [1]: 6.2 | pKa(H2O) [2]: 1.46

NS(=O)(=O)O [Sulfamic acid]
pKa(DMSO) [1]: 6.5 | pKa(H2O) [2]: 0.99

O=C(O)c1cc2ccccc2c(Cc2c(O)c(C(=O)O)cc3ccccc23)c1O [Pamoic acid]
pKa(H2O) [2]: 2.67
